Laboratory results from US12168012B2, “NLRP3 inflammasome inhibitors” (Novartis AG, priority 2018, dated 2024).
Structures can show the parent of a compound that is named as a salt.

What was measured:
NLRP3 inflammasome = test: IL-1β secretion assay; assay type: cell-based; details: PMA-differentiated THP-1 cells, 15 μM nigericin, HTRF
Outline: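 PMA-differentiated THP-1 cells stimulated with nigericin to trigger NLRP3-dependent IL-1β secretion, measured by HTRF after 3 h. Viability/pyroptosis monitored with PrestoBlue. IC50 from logistic fit of % inhibition vs concentration with Hill coefficient.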

[1] = tested on: NF-kB-dependent TNF-α secretion; test: TNF-α secretion assay (counterscreen); assay type: cell-based; details: Homo sapiens; THP-1 cells, Pam3CSK4-stimulated, 3 hours, HTRF
Experimental: Monocytic THP-1 cells were maintained according to providers' instructions in RPMI media as described above. Undifferentiated cells were plated at 50,000 cells per well in a 384-well flat-bottom cell culture plates (Greiner, #781986), and allowed to rest overnight. Experimental compounds were prepared and added as described above. TNF-α secretion was triggered by the addition of either 1 μg/mL LPS (Sigma, #L4391) or 100 ng/mL Pam3CSK4 (Invivogen, #tlrl-pms) depending on the experiment, and cells were incubated for 3 hours. 10 μL supernatant was removed, and TNF-α levels were monitored using an HTRF assay (CisBio, #62TNFPEC) according to manufacturers' instructions. Viability was monitored as described above.
IC50 values were calculated from the plot of percentage of inhibition versus the inhibitor concentration by a logistics fit according to: y=A2+(A1−A2)/(1+(x/IC50)^p) where y is the %-inhibition at the inhibitor concentration, x. A1 is the lowest inhibition value, i.e. 0%, and A2 the maximum inhibition value, i.e. 100%. The exponent, p, is the Hill coefficient. The curve fitting was conducted with an internally developed software suite. […]

Compound	IC50 (NLRP3 inflammasome; Homo sapiens, THP-1, 3 h) [nM]	IC50 [1] [nM]	IC50 (NLRP3 inflammasome; 3 hours) [nM]
CC(O)c1nn(CC(=O)N[C@@H]2CCCNC2)c(=O)c2cc3sc(Cl)cc3n12 (stereo partly drawn) [Ex 43, 2-(2-Chloro-5-(1-hydroxyethyl)-8-oxothieno[2′,3′:4,5]pyrrolo[1,2-d][1,2,4]triazin-7(8H)-yl)-N-((R)-piperidin-3-yl)acetamide hydrochloride]	2050	> 100000	–
CC(O)c1nn(CC(=O)N[C@@H]2CCCN(C)C2)c(=O)c2cc3sc(Cl)cc3n12 (stereo partly drawn) [Ex 44, 2-(2-Chloro-5-(1-hydroxyethyl)-8-oxothieno[2′,3′:4,5]pyrrolo[1,2-d][1,2,4]triazin-7(8H)-yl)-N-((R)-1-methylpiperidin-3-yl)acetamide]	112	> 100000	–
CC(O)c1nn(CC(=O)N[C@@H]2CCC[C@@](C)(O)C2)c(=O)c2cc3sc(Cl)cc3n12 (stereo partly drawn) [Ex 45, 2-(2-Chloro-5-(1-hydroxyethyl)-8-oxothieno[2′,3′:4,5]pyrrolo[1,2-d][1,2,4]triazin-7(8H)-yl)-N-((1R,3R)-3-hydroxy-3-methylcyclohexyl)acetamide]	244	> 100000	–
CC(C)c1nn(CC(=O)N[C@@H]2CCC(=O)NC2)c(=O)c2cc3scnc3n12 [Ex 46, (R)-2-(5-Isopropyl-8-oxothiazolo[5′,4′:4,5]pyrrolo[1,2-d][1,2,4]triazin-7(8H)-yl)-N-(6-oxopiperidin-3-yl)acetamide]	50.8	> 100000	–
CC(C)c1nn(CC(=O)N[C@@H]2CCC[C@@H](O)C2)c(=O)c2cc3scnc3n12 [Ex 47, N-((1R,3R)-3-Hydroxycyclohexyl)-2-(5-isopropyl-8-oxothiazolo[5′,4′:4,5]pyrrolo[1,2-d][1,2,4]triazin-7(8H)-yl)acetamide]	9.1	> 100000	–
CC(C)c1nn(CC(=O)N[C@@H]2CCC(=O)N(C)C2)c(=O)c2cc3scnc3n12 [Ex 49, (R)-2-(5-Isopropyl-8-oxothiazolo[5′,4′:4,5]pyrrolo[1,2-d][1,2,4]triazin-7(8H)-yl)-N-(1-methyl-6-oxopiperidin-3-yl)acetamide]	–	> 100000	26.4
Cc1nc2c(cc3c(=O)n(CC(=O)N[C@@H]4CCCNC4)nc(C(C)C)n32)s1 [Ex 50, (R)-2-(5-Isopropyl-2-methyl-8-oxothiazolo[5′,4′:4,5]pyrrolo[1,2-d][1,2,4]triazin-7(8H)-yl)-N-(piperidin-3-yl)acetamide]	108	> 100000	–
CC(C)c1nn(CC(=O)NC2CC2)c(=O)c2cc3scnc3n12 [Ex 51, N-Cyclopropyl-2-(5-isopropyl-8-oxothiazolo[5′,4′:4,5]pyrrolo[1,2-d][1,2,4]triazin-7(8H)-yl)acetamide]	138	> 100000	–
CC(C)c1nn(CC(=O)N[C@@H]2C[C@@H]2F)c(=O)c2cc3sc(Cl)cc3n12 [Ex 52, 2-(2-Chloro-5-isopropyl-8-oxothieno[2′,3′:4,5]pyrrolo[1,2-d][1,2,4]triazin-7(8H)-yl)-N-((1R,2S)-2-fluorocyclopropyl)acetamide]	660	> 100000	–
CC(C)c1nn(CC(=O)N[C@H]2CC[C@H](C(=O)O)CC2)c(=O)c2cc3sc(Cl)cc3n12 [Ex 53, (1r,4r)-4-(2-(2-Chloro-5-isopropyl-8-oxothieno[2′,3′:4,5]pyrrolo[1,2-d][1,2,4]triazin-7(8H)-yl)acetamido)cyclohexane-1-carboxylic acid]	34.2	> 100000	–
CC(C)c1nn(CC(=O)N[C@H]2CC[C@@H](C(=O)O)CC2)c(=O)c2cc3sc(Cl)cc3n12 [Ex 54, (1s,4s)-4-(2-(2-Chloro-5-isopropyl-8-oxothieno[2′,3′:4,5]pyrrolo[1,2-d][1,2,4]triazin-7(8H)-yl)acetamido)cyclohexane-1-carboxylic acid]	562	> 100000	–
CC(C)c1nn(CC(=O)N[C@H]2CCC[C@@H](C(=O)O)C2)c(=O)c2cc3sc(Cl)cc3n12 [Ex 55, (1R,3S)-3-(2-(2-Chloro-5-isopropyl-8-oxothieno[2′,3′:4,5]pyrrolo[1,2-d][1,2,4]triazin-7(8H)-yl)acetamido)cyclohexane-1-carboxylic acid]	843	> 100000	–
CC(C)c1nn(CC(=O)Nc2ccc(F)cc2F)c(=O)c2cc3sc(Cl)cc3n12 [Ex 58, 2-(2-Chloro-5-isopropyl-8-oxothieno[2′,3′:4,5]pyrrolo[1,2-d][1,2,4]triazin-7(8H)-yl)-N-(2,4-difluorophenyl)acetamide]	176	> 100000	–
CC(C)c1nn(CC(=O)N[C@@H]2CCCOC2)c(=O)c2cc3sc(Cl)cc3n12 [Ex 59, (R)-2-(2-Chloro-5-isopropyl-8-oxothieno[2′,3′:4,5]pyrrolo[1,2-d][1,2,4]triazin-7(8H)-yl)-N-(tetrahydro-2H-pyran-3-yl)acetamide]	201	> 100000	–
CC(C)(O)c1nn(CC(=O)NC2CC2)c(=O)c2cc3sc(Cl)cc3n12 [Ex 62, 2-(2-Chloro-5-(2-hydroxypropan-2-yl)-8-oxothieno[2′,3′:4,5]pyrrolo[1,2-d][1,2,4]triazin-7(8H)-yl)-N-cyclopropylacetamide]	76.1	> 100000	–
CC(C)(O)c1nn(CC(=O)N[C@@H]2CCC[C@@H](O)C2)c(=O)c2cc3sc(Cl)cc3n12 [Ex 64, 2-(2-Chloro-5-(2-hydroxypropan-2-yl)-8-oxothieno[2′,3′:4,5]pyrrolo[1,2-d][1,2,4]triazin-7(8H)-yl)-N-((1R,3R)-3-hydroxycyclohexyl)acetamide]	3.4	> 100000	–
CC(C)c1nn(CC(=O)NCCO)c(=O)c2cc3sc(Cl)cc3n12 [Ex 68, 2-(2-Chloro-5-isopropyl-8-oxothieno[2′,3′:4,5]pyrrolo[1,2-d][1,2,4]triazin-7(8H)-yl)-N-(2-hydroxyethyl)acetamide]	45.2	> 100000	–
CC(C)c1nn(CC(=O)NC[C@H](C)O)c(=O)c2cc3sc(Cl)cc3n12 [Ex 69, (S)-2-(2-Chloro-5-isopropyl-8-oxothieno[2′,3′:4,5]pyrrolo[1,2-d][1,2,4]triazin-7(8H)-yl)-N-(2-hydroxypropyl)acetamide]	58.8	> 100000	–
CC(C)c1nn(CC(=O)NC[C@@H](C)O)c(=O)c2cc3sc(Cl)cc3n12 [Ex 70, (R)-2-(2-Chloro-5-isopropyl-8-oxothieno[2′,3′:4,5]pyrrolo[1,2-d][1,2,4]triazin-7(8H)-yl)-N-(2-hydroxypropyl)acetamide]	34.9	> 100000	–
CC(C)c1nn(CC(=O)N[C@H]2C[C@@](C)(O)C2)c(=O)c2cc3sc(Cl)cc3n12 [Ex 72, 2-(2-Chloro-5-isopropyl-8-oxothieno[2′,3′:4,5]pyrrolo[1,2-d][1,2,4]triazin-7(8H)-yl)-N-((1s,3s)-3-hydroxy-3-methylcyclobutyl)acetamide]	0.4	> 100000	–
CC(C)c1nn(CC(=O)NC23CCC(O)(CC2)CC3)c(=O)c2cc3sc(Cl)cc3n12 [Ex 76, 2-(2-Chloro-5-isopropyl-8-oxothieno[2′,3′:4,5]pyrrolo[1,2-d][1,2,4]triazin-7(8H)-yl)-N-(4-hydroxybicyclo[2.2.2]octan-1-yl)acetamide]	45.1	> 100000	–
CC(C)c1nn(CC(=O)NCCC(C)(C)O)c(=O)c2cc3sc(Cl)cc3n12 [Ex 77, 2-(2-Chloro-5-isopropyl-8-oxothieno[2′,3′:4,5]pyrrolo[1,2-d][1,2,4]triazin-7(8H)-yl)-N-(3-hydroxy-3-methylbutyl)acetamide]	14	> 100000	–
